Measurements taken from publication PMC3367438 (2011).

Target: Aβ42 (β-amyloid peptide) (Homo sapiens, UniProt P05067)
Assay: fluorescence polarization of the intrinsically fluorescent probe
Format: binding

Chain of Aβ42 (β-amyloid peptide) (P05067 672-713 limits assumed): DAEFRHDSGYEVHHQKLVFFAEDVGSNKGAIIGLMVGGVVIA

COc1cc(C=CC(=O)C(Cc2cn(CCCCCCNC(=O)CCNC(=O)CCNC(=O)COC3CCC4(C)C(=CCC5C4CCC4(C)C(C(C)CCCC(C)C)CCC54)C3)nn2)C(=O)C=Cc2ccc(O)c(OC)c2)ccc1O (stereo not shown) [compound 7, BMAOI 14]
Kd: 830 nM
